Reference: patent publication US9242996B2 (Novartis AG, priority 2013, dated 2016)

Columns and labels:
Assay type in all cases: biochemical
[1] = biological target: T1, activated ERK2 (Homo sapiens (Human), UniProt P28482); test: Activated ERK2 kinase assay, ERK2 New conditions (AlphaScreen, ERKtide phosphorylation); conditions: 0.25 nM ERK2, 200 nM ERKtide peptide, 35 μM ATP, 30 min preincubation
Summary of the method: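 Read-out is AlphaScreen with anti-phospho-EGFR (Thr669) antibody after EDTA quench and overnight dark incubation. Reaction: 0.25 nM ERK2, 30 min compound preincubation, then 200 nM ERKtide plus 35 µM ATP for 2–3 h at ambient temperature, pH 7.5. IC50 by four-parameter fit.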

[2] = biological target: ERK2 (Homo sapiens (Human), UniProt P28482); test: ERK2 Alphascreen
[3] = biological target: T1, activated ERK2; test: Activated ERK2 (20 pM) Kinase Assay (AlphaScreen, ERKtide phosphorylation); conditions: 0.02 nM ERK2, 400 nM ERKtide peptide, 35 μM ATP, 30 min preincubation
Summary of the method: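 AlphaScreen read-out (anti-phospho-EGFR Thr669 antibody, protein A acceptor/streptavidin donor beads) of ERKtide (400 nM) phosphorylation by 20 pM activated ERK2 at 35 μM ATP.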

T1 sequence (P28482 whole entry): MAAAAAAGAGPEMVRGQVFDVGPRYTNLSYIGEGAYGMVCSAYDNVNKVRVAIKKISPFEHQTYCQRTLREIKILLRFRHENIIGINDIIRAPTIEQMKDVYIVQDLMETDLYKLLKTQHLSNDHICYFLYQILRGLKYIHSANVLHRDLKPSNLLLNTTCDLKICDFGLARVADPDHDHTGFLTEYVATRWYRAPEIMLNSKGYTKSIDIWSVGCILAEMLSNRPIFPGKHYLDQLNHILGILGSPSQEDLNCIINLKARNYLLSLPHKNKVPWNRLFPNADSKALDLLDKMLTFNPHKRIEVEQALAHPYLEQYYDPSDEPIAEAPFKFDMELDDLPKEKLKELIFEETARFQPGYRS
Sequence of ERK2 (P28482 whole entry, species assumed): as the sequence (P28482 whole entry) above

| Compound | IC50 [1] | IC50 [2] | IC50 [3] |
| --- | --- | --- | --- |
| Nc1ncc(C2CCOCC2)nc1-c1ccc(C(=O)N[C@H](CO)c2ccccc2)cc1 [Example 1, (S)-4-(3-amino-6-(tetrahydro-2H-pyran-4-yl)pyrazin-2-yl)-N-(2-hydroxy-1-phenylethyl)benzamide] | 1.63 nM | 1.06 nM | – |
| Nc1ncc(C2CCNCC2)cc1-c1ccc(C(=O)N[C@H](CO)c2ccccc2)c(F)c1 [Example 2, (S)-4-(2-amino-5-(piperidin-4-yl)pyridin-3-yl)-2-fluoro-N-(2-hydroxy-1-phenylethyl)benzamide] | – | 192 nM | – |
| CN(Cc1ccccc1)C(=O)c1ccc(-c2nc(C3CCOCC3)cnc2N)cc1F [Example 52, 4-(3-amino-6-(tetrahydro-2H-pyran-4-yl)pyrazin-2-yl)-N-benzyl-2-fluoro-N-methylbenzamide] | 30.3 nM | 31.2 nM | – |
| Nc1ncc(C2CCOCC2)cc1-c1ccc(C(=O)N[C@H](CO)c2ccccc2)cc1 [Example 64, (S)-4-(2-amino-5-(tetrahydro-2H-pyran-4-yl)pyridin-3-yl)-N-(2-hydroxy-1-phenylethyl)benzamide] | – | 3.64 nM | 4.36 nM |
| Cc1cc(-c2cc(C3CCOCC3)cnc2N)ccc1C(=O)N[C@H](CO)c1ccccc1 [Example 65, (S)-4-(2-amino-5-(tetrahydro-2H-pyran-4-yl)pyridin-3-yl)-N-(2-hydroxy-1-phenylethyl)-2-methylbenzamide] | – | 1.84 nM | 0.684 nM |
| Nc1ncc(C2CCOCC2)cc1-c1ccc(C(=O)NCc2ccccc2)cc1 [Example 66, 4-(2-amino-5-(tetrahydro-2H-pyran-4-yl)pyridin-3-yl)-N-benzylbenzamide] | – | 55.3 nM | 41.8 nM |
| CN(C)c1cccc(CNC(=O)c2ccc(-c3cc(C4CCOCC4)cnc3N)cc2)c1 [Example 67, 4-(2-amino-5-(tetrahydro-2H-pyran-4-yl)pyridin-3-yl)-N-(3-(dimethylamino)benzyl)benzamide] | – | 85.5 nM | 67.7 nM |
| C[C@@H](NC(=O)c1ccc(-c2cc(C3CCOCC3)cnc2N)cc1)c1ccccc1 [Example 69, (R)-4-(2-amino-5-(tetrahydro-2H-pyran-4-yl)pyridin-3-yl)-N-(1-phenylethyl)benzamide] | – | 16 nM | 10 nM |
| Cc1cc(C(=O)N[C@H](CO)c2ccccc2)ccc1-c1cc(C2CCOCC2)cnc1N [Example 70, (S)-4-(2-amino-5-(tetrahydro-2H-pyran-4-yl)pyridin-3-yl)-N-(2-hydroxy-1-phenylethyl)-3-methylbenzamide] | – | 574 nM | 331 nM |
| Nc1ncc(C2CCOCC2)cc1-c1ccc(C(=O)N[C@H](CO)c2ccccc2)cc1F [Example 71, (S)-4-(2-amino-5-(tetrahydro-2H-pyran-4-yl)pyridin-3-yl)-3-fluoro-N-(2-hydroxy-1-phenylethyl)benzamide] | – | 17.2 nM | 8.78 nM |
| Nc1ncc(C2CCS(=O)(=O)CC2)cc1-c1ccc(C(=O)N[C@H](CO)c2ccccc2)cc1 [Example 77, (S)-4-(2-amino-5-(1,1-dioxidotetrahydro-2H-thiopyran-4-yl)pyridin-3-yl)-N-(2-hydroxy-1-phenylethyl)benzamide] | – | 97.6 nM | 50.8 nM |
| Nc1ncc(-c2ccncc2)cc1-c1ccc(C(=O)N[C@H](CO)c2ccccc2)cc1 [Example 80, (S)-4-(6-amino-[3,4′-bipyridin]-5-yl)-N-(2-hydroxy-1-phenylethyl)benzamide] | – | 0.584 nM | 0.51 nM |
| Cc1cnccc1-c1cnc(N)c(-c2ccc(C(=O)N[C@H](CO)c3ccccc3)cc2)c1 [Example 82, (S)-4-(6-amino-3′-methyl-3,4′-bipyridin-5-yl)-N-(2-hydroxy-1-phenylethyl)benzamide] | – | 2.13 nM | 0.9 nM |
| C[C@@H]1COCCN1c1cnc(N)c(-c2ccc(C(=O)N[C@H](CO)c3ccccc3)c(F)c2)c1 [Example 84, 4-(2-amino-5-((R)-3-methylmorpholino)pyridin-3-yl)-2-fluoro-N-((S)-2-hydroxy-1-phenylethyl)benzamide] | – | 9.64 nM | 2.05 nM |
| Nc1ncc(C2CCOCC2)cc1-c1ccc(C(=O)NCc2cccc(Cl)c2)cc1 [Example 86, 4-(2-amino-5-(tetrahydro-2H-pyran-4-yl)pyridin-3-yl)-N-(3-chlorobenzyl)benzamide] | – | 4.78 nM | 3.75 nM |
| Nc1ncc(C2CCOCC2)cc1-c1ccc(C(=O)NCc2ccccc2Cl)cc1 [Example 87, 4-(2-amino-5-(tetrahydro-2H-pyran-4-yl)pyridin-3-yl)-N-(2-chlorobenzyl)benzamide] | – | 266 nM | 209 nM |

| Compound | IC50 [1] | IC50 [2] | IC50 [3] |
| --- | --- | --- | --- |
| Nc1ncc(C2CCOCC2)cc1-c1ccc(C(=O)NCc2ccc(Cl)cc2)cc1 [Example 88, 4-(2-amino-5-(tetrahydro-2H-pyran-4-yl)pyridin-3-yl)-N-(4-chlorobenzyl)benzamide] | – | 81.4 nM | 70.5 nM |
| Nc1ncc(C2CCOCC2)cc1-c1ccc(C(=O)NCc2cccc(C(F)(F)F)c2)cc1 [Example 89, 4-(2-amino-5-(tetrahydro-2H-pyran-4-yl)pyridin-3-yl)-N-(3-(trifluoromethyl)benzyl)benzamide] | – | 9.8 nM | 20.2 nM |
| Nc1ncc(C2CCOCC2)cc1-c1ncc(C(=O)N[C@H](CO)c2ccccc2)cn1 [Example 90, (S)-2-(2-amino-5-(tetrahydro-2H-pyran-4-yl)pyridin-3-yl)-N-(2-hydroxy-1-phenylethyl)pyrimidine-5-carboxamide] | – | 49 nM | 33 nM |
| Nc1ncc(C2CCOCC2)cc1-c1ccc(C(=O)NCC2CC2)cc1 [Example 91, 4-(2-amino-5-(tetrahydro-2H-pyran-4-yl)pyridin-3-yl)-N-(cyclopropylmethyl)benzamide] | – | 559 nM | 284 nM |
| CC(=O)Nc1cccc(CNC(=O)c2ccc(-c3cc(C4CCOCC4)cnc3N)cc2)c1 [Example 92, N-(3-acetamidobenzyl)-4-(2-amino-5-(tetrahydro-2H-pyran-4-yl)pyridin-3-yl)benzamide] | – | 267 nM | 135 nM |
| Nc1ncc(C2CCOCC2)cc1-c1ccc(C(=O)NCc2cccnc2)cc1 [Example 93, 4-(2-amino-5-(tetrahydro-2H-pyran-4-yl)pyridin-3-yl)-N-(pyridin-3-ylmethyl)benzamide] | – | 887 nM | 505 nM |
| Nc1ncc(C2CCOCC2)cc1-c1ccc(C(=O)N[C@H](CO)c2ccccc2)c(F)c1 [Example 94, (S)-4-(2-amino-5-(tetrahydro-2H-pyran-4-yl)pyridin-3-yl)-2-fluoro-N-(2-hydroxy-1-phenylethyl)benzamide] | – | 0.914 nM | 0.879 nM |
| Cc1cc(-c2nc(C3CCOCC3)cnc2N)ccc1C(=O)N[C@H](CO)c1ccccc1 [Example 95, (S)-4-(3-amino-6-(tetrahydro-2H-pyran-4-yl)pyrazin-2-yl)-N-(2-hydroxy-1-phenylethyl)-2-methylbenzamide] | – | 0.533 nM | 0.136 nM |
| COC(=O)N1CCC(c2cnc(N)c(-c3ccc(C(=O)N[C@H](CO)c4ccccc4)cc3)c2)CC1 [Example 98, (S)-methyl 4-(6-amino-5-(4-((2-hydroxy-1-phenylethyl)carbamoyl)phenyl)pyridin-3-yl)piperidine-1-carboxylate] | – | 26.3 nM | 15.8 nM |
| Nc1ncc(N2CCOCC2)cc1-c1ccc(C(=O)N[C@H](CO)c2ccccc2)cc1 [Example 122, (S)-4-(2-amino-5-morpholinopyridin-3-yl)-N-(2-hydroxy-1-phenylethyl)benzamide] | – | 11 nM | 7.38 nM |
| Cc1cnccc1-c1cnc(N)c(-c2ccc(C(=O)N[C@H](CO)c3ccccc3)c(F)c2)n1 [Example 143, (S)-4-(3-amino-6-(3-methylpyridin-4-yl)pyrazin-2-yl)-2-fluoro-N-(2-hydroxy-1-phenylethyl)benzamide] | – | 0.265 nM | 0.364 nM |
| Nc1ncc(C2CCOCC2)nc1-c1ccc(C(=O)NCc2cccc(Cl)c2)c(F)c1 [Example 173, 4-(3-amino-6-(tetrahydro-2H-pyran-4-yl)pyrazin-2-yl)-N-(3-chlorobenzyl)-2-fluorobenzamide] | – | 0.758 nM | – |
| Nc1ncc(C2CCOCC2)cc1-c1ccc(C(=O)NCc2ccnnc2)c(F)c1 [Example 318, 4-(2-amino-5-(tetrahydro-2H-pyran-4-yl)pyridin-3-yl)-2-fluoro-N-(pyridazin-4-ylmethyl) benzamide] | – | 311 nM | 381 nM |
| C[C@@H](NC(=O)c1ccc(-c2nc(C3=CCOCC3)cnc2N)cc1F)c1cc(F)cc(S(C)(=O)=O)c1 [Example 429, (R)-4-(3-amino-6-(3,6-dihydro-2H-pyran-4-yl)pyrazin-2-yl)-2-fluoro-N-(1-(3-fluoro-5-(methylsulfonyl)phenyl)ethyl) benzamide] | 0.503 nM | – | 0.221 nM |
| COCC(=O)N[C@H]1CC[C@H](c2cnc(N)c(-c3ccc(C(=O)N[C@H](CO)c4cccc(Cl)c4)c(F)c3)n2)CC1 [Example 430, 4-(3-amino-6-((1r,4S)-4-(2-methoxy-acetamido)cyclohexyl)pyrazin-2-yl)-N-((S)-1-(3-chlorophenyl)-2-hydroxyethyl)-2-fluorobenzamide] | 0.787 nM | – | 0.343 nM |
| (S)-4-(3-amino-6- (tetrahydro-2H- pyran-4- yl)pyrazin-2-yl)-2- fluoro-N-(2- hydroxy-1- phenylethyl) benzamide [Example 325] | – | 0.544 nM | 0.593 nM |
